For the test, the target named is T1, soybean lipoxygenase (Glycine max, UniProt P08170).
T1 construct: gene LOX1.1
T1 sequence (P08170 1-839): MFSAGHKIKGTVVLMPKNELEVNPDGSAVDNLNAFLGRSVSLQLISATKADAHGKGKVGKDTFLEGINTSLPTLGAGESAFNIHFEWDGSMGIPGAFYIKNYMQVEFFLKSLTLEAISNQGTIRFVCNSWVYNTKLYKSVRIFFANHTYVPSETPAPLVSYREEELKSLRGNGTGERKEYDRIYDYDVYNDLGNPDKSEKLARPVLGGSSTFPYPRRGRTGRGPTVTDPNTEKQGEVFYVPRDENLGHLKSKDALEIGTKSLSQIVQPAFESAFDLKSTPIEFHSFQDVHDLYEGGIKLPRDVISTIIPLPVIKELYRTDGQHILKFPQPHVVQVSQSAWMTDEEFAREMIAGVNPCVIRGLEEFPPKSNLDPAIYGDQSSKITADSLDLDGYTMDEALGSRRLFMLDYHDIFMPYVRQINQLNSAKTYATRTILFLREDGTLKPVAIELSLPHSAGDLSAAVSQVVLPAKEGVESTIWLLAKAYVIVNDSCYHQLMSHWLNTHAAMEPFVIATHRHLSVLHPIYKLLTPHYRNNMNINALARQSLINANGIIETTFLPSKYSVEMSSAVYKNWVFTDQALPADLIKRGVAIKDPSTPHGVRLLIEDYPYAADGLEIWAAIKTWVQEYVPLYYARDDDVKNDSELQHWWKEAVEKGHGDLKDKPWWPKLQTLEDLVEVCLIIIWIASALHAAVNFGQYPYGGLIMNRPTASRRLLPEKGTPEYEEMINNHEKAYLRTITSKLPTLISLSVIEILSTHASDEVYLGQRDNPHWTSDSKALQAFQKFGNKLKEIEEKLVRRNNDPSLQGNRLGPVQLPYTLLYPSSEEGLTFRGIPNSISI
The test can be described thus: UV assay of sodium linoleate conversion to 13-hydroperoxylinoleic acid at […] nm. The format is biochemical. The note with it: read-out: LOX Inhibition (% or IC50 [μM]) (±SEM).

This is an account of results in paper PMC7663103, “Homo-Tris-Nitrones Derived from α-Phenyl-N-tert-butylnitrone: Synthesis, Neuroprotection and Antioxidant Properties” (International Journal of Molecular Sciences, 2020).

SMILES strings stand for the structures.

`[O-]/[N+](=C\c1cc(/C=[N+](\[O-])Cc2ccccc2)cc(/C=[N+](\[O-])Cc2ccccc2)c1)Cc1ccccc1` [HTN3, (1. Z,1′Z,1″Z)-1,1′,1″-(Benzene-1,3,5-triyl)tris(N-benzylmethanimineoxide)]: the concentration for half-maximal inhibition (IC50) (in general, the concentration needed to halve the response being measured) turned out to be 70 ± 2.6 µM.
Next, `C/[N+]([O-])=C/c1cc(/C=[N+](/C)[O-])cc(/C=[N+](/C)[O-])c1` [HTN1, (1. Z,1′Z,1″Z)-1,1′,1″-(Benzene-1,3,5-triyl)tris(N-methylmethanimineoxide)]: 100 ± 1.1 µM.
